Columns and labels:
Phakopsora pachyrhizi [1] = test: Curative activity against soybean rust caused by Phakopsora pachyrhizi (Example G1, sprayed two days after incubation); type: in vivo; settings: soybean seedlings, 300 ppm aqueous active compound preparation, sprayed to runoff two days after 24 h incubation, assessed after a further 10 days; untreated plants 90% infected
Method: (§1) The active compounds were prepared separately or together as a stock solution with 25 mg of active compound, which was made up to 10 ml with a mixture of acetone and/or DMSO and the emulsifier Uniperol® EL (wetting agent with emulsifying and dispersant action based on ethoxylated alkylphenols) in the volume ratio solvent/emulsifier of 99 to 1. Subsequently, it was made up to 100 ml with water. This stock solution was diluted with the described solvent/emulsifier/water mixture to the active compound concentration indicated below. Alternatively to this, the active compounds were used as a commercially available ready-to-use solution and diluted with water to the active compound concentration indicated.
Leaves of soybean seedlings grown in pots were inoculated with a spore suspension of soybean rust (Phakopsora pachyrhizi). The pots were then placed in a chamber of high atmospheric humidity (90 to 95%) and 23 to 27° C. for 24 hours. During this time, the spores germinated and the germ tubes penetrated into the leaf tissue. The infected plants were then cultivated further in a greenhouse at temperatures between 23 and 27° C. and 60 to 80% relative atmospheric humidity. After two days, the plants were sprayed to runoff point with the active compound solution described above at the active compound concentration indicated below. After the spray coating had dried on, the test plants were cultivated in a greenhouse at temperatures between 23 and 27° C. and 60 to 80% relative atmospheric humidity for a further 10 days. The extent of the rust fungus development on the leaves was then determined visually in % infections.

Phakopsora pachyrhizi [2] = test: Curative activity against soybean rust caused by Phakopsora pachyrhizi (Example G2, sprayed directly after 24 h incubation); type: in vivo; settings: soybean seedlings, 300 ppm aqueous active compound preparation, sprayed to runoff after 24 h incubation, assessed after a further 14 days; untreated plants 90% infected
Method: as §1
Leaves of soybean seedlings grown in pots were inoculated with a spore suspension of soybean rust (Phakopsora pachyrhizi). The pots were then placed in a chamber of high atmospheric humidity (90 to 95%) and 23 to 27° C. for 24 hours. During this time, the spores germinated and the germ tubes penetrated into the leaf tissue. The infected plants were then sprayed to runoff point with the active compound solution described above at the active compound concentration indicated below. […] The extent of the rust fungus development on the leaves was then determined visually in % infections.

SMILES	infection (extent of the rust fungus development on the leaves, determined visually) (Phakopsora pachyrhizi [1])	infection (extent of the rust fungus development on the leaves, determined visually) (Phakopsora pachyrhizi [2])
CC(C)[C@H](O)[C@@H](CCCCOc1cccc(Cl)c1Cl)n1nc[nH]c1=S (racemic) [I.A2, (RS,SR)-2-[5-(2,3-dichlorophenoxy)-1-(1-hydroxy-2-methylpropyl)pentyl]-2,4-dihydro[1,2,4]triazole-3-thione]	0%	
CC(C)[C@H](O)[C@@H](CCCCOc1cccc(F)c1F)n1nc[nH]c1=S (racemic) [I.A1, (RS,SR)-2-[5-(2,3-difluorophenoxy)-1-(1-hydroxy-2-methylpropyl)pentyl]-2,4-dihydro[1,2,4]triazole-3-thione]		0%
CC(C)[C@H](O)[C@@H](CCCCOc1ccc(Cl)cc1Cl)n1nc[nH]c1=S (racemic) [I.A3, (RS,SR)-2-[5-(2,4-dichlorophenoxy)-1-(1-hydroxy-2-methylpropyl)pentyl]-2,4-dihydro[1,2,4]triazole-3-thione]	0%	
CC(C)[C@H](O)[C@@H](CCCCOc1cc(F)ccc1F)n1nc[nH]c1=S (racemic) [I.A4, (RS,SR)-2-[5-(2,5-difluorophenoxy)-1-(1-hydroxy-2-methylpropyl)pentyl]-2,4-dihydro[1,2,4]triazole-3-thione]	0%	
